One data set deals with Thrombin (Homo sapiens, UniProt P00734). In words: Related protease inhibition: Thrombin (fluorogenic substrate at Km). The format is biochemical. The conditions noted are these: class symbols per Table 18. The procedure, abridged:
(§1)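 Enzymatic activity was followed as release of fluorescence from a fluorogenic substrate over 5 min at 25° C, with test compound at various concentrations. The linear rate per minute was converted to % activity, and IC50 was taken as the concentration giving 50% inhibition of uninhibited enzyme activity.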

For another data set, the target named is KLK1 (Homo sapiens, UniProt P06870). As to the kind of experiment: Related protease inhibition: KLK1 (fluorogenic substrate at Km). The data set is classed as biochemical. The note with it: class symbols per Table 18. The method in brief:
(§2)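 Read-out is the linear per-minute rise in fluorescence liberated from substrate, monitored for 5 min at 25° C and expressed as % activity. Substrate sat at Km, except for FXIa, which used 100 μM. IC50 values come from the concentration producing half-maximal inhibition.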

The target in another data set is T1, Plasma Kallikrein (Homo sapiens, UniProt P03952).
T1 construct: FXIIa converts plasma prekallikrein (PK) to plasma kallikrein (PKa)
In words: Related protease inhibition: Plasma Kallikrein (fluorogenic substrate at Km). The conditions noted are these: class symbols per Table 18, read-out: IC50 (human PKal). The format is biochemical. The procedure, abridged:
as §1

Another data set concerns the target FXa (Homo sapiens, UniProt P00742). As to the kind of experiment: Related protease inhibition: FXa (fluorogenic substrate at Km). The format is biochemical. The conditions noted are these: class symbols per Table 18. The procedure, abridged:
as §2

Data set [1] is described as follows: Pharmacokinetics after single intravenous and single oral dose in rats. The data set is classed as in vivo. The conditions noted are these: rat, plasma, male Sprague-Dawley rats, single iv (nominal 1 mg/kg) and single po (nominal 5 mg/kg) dose; for half-life: Phoenix WinNonlin; for bioavailability: oral bioavailability, 10% DMSO/10% Cremophor EL/80% SWFI. On the procedure: Pharmacokinetic studies of the compounds in Table 19 were performed to assess the pharmacokinetics following a single intravenous dose and a single oral dose in male Sprague-Dawley rats. Two rats were given a single intravenous dose of 1 mL/kg of a nominal 1 mg/ml (1 mg/kg) composition of test compound in 10% DMSO/10% Cremophor EL/80% SWFI vehicle. Two rats were given a single oral dose of 5 ml/kg of a nominal 1 mg/mL (5 mg/kg) composition of test compound in 10% DMSO/10% Cremophor EL/80% SWFI vehicle.
Following intravenous dosing, blood samples were collected over a period of 12 h. Sample times were 2, 5, 15 and 30 min then 1, 2, 4, 6, and 12 h. Following oral dosing, blood samples were collected over a period of 24 h. Sample times were 5, 15 and 30 min then 1, 2, 4, 6, 8, 12 and 24 h.
Following collection, blood samples were centrifuged and the plasma fraction analysed for concentration of test compound by LCMS. Oral bioavailability and half-life calculations from these studies were obtained using Phoenix WinNonlin (v8.0) and are shown below: […]

The target in a further data set is T2, Human Factor XIIa (Homo sapiens, UniProt P00748).
T2 construct: Proteolytic cleavage of FXII to heavy and light chains of FXIIa dramatically increases catalytic activity; purchased Enzyme Research Laboratories
T2 sequence (P00748 373-615 limits assumed): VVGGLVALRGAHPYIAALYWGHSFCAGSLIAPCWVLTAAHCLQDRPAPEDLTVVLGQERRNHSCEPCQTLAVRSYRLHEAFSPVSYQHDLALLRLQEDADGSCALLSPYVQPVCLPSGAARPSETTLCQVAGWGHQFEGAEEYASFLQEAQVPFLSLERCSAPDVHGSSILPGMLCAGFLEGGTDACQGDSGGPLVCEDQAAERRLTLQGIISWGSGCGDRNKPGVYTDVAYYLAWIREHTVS
T2 sequence (P00748 20-372 partner limits assumed): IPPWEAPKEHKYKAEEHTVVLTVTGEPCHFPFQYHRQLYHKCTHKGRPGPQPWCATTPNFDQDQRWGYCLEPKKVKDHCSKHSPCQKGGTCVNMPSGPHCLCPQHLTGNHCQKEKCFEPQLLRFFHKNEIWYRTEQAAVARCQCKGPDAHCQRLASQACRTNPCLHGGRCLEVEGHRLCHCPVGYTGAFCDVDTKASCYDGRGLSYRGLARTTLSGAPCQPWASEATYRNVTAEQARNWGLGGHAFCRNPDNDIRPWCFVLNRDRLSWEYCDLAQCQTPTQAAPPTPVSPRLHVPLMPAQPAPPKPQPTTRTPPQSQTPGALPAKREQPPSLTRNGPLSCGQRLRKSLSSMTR
As to the kind of experiment: Determination of FXIIa inhibition (fluorogenic substrate H-DPro-Phe-Arg-AFC, IC50 assay). The data set is classed as biochemical. The conditions noted are these: substrate at Km concentration, 25° C.; category scale; read-out: Human FXII IC50 (nm). The procedure, abridged: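 Human FXIIa incubated at 25° C. with fluorogenic H-DPro-Phe-Arg-AFC at its Km concentration plus varying compound levels. Linear fluorescence increase over 5 min taken as % activity; IC50 is concentration halving uninhibited activity.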

The target in a further data set is Trypsin (Homo sapiens, UniProt P07477). In words: Related protease inhibition: Trypsin (fluorogenic substrate at Km). The format is biochemical. The note with it: class symbols per Table 18. Here is the method:
(§3) In vitro inhibition of related proteases was determined using an IC50 assay based on standard literature methods (see e.g. Shori et al., Biochem. Pharmacol., 1992, 43, 1209; Bouckaert et al., European Journal of Medicinal Chemistry 110 (2016) 181). Human serine protease enzyme Plasma Kallikrein, KLK1, FXa, Plasmin, Thrombin and Trypsin were assayed for enzymatic activity using an appropriate fluorogenic substrate at Km concentration, FXIa at fixed substrate concentration of 100 μM and various concentrations of the test compound. Protease activity was measured by monitoring the accumulation of liberated fluorescence from the substrate over 5 min at 25° C. The linear rate of fluorescence increase per minute was expressed as percentage (%) activity. IC50 values were calculated as the concentration of inhibitor giving 50% inhibition of the uninhibited enzyme activity (100%).

A further data set concerns the target Plasmin (Homo sapiens, UniProt P00747). As to the kind of experiment: Related protease inhibition: Plasmin (fluorogenic substrate at Km). The data set is classed as biochemical. The conditions noted are these: class symbols per Table 18. Here is the method: as §3

T1 sequence (P03952 391-638 limits assumed): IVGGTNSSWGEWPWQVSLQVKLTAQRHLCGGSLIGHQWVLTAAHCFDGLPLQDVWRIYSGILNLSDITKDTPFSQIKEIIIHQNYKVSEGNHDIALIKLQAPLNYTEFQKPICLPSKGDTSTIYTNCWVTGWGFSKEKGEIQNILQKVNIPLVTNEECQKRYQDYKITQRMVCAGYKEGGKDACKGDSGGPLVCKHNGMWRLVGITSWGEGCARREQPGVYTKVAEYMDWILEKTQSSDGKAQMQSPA
T1 sequence (P03952 20-390 partner limits assumed): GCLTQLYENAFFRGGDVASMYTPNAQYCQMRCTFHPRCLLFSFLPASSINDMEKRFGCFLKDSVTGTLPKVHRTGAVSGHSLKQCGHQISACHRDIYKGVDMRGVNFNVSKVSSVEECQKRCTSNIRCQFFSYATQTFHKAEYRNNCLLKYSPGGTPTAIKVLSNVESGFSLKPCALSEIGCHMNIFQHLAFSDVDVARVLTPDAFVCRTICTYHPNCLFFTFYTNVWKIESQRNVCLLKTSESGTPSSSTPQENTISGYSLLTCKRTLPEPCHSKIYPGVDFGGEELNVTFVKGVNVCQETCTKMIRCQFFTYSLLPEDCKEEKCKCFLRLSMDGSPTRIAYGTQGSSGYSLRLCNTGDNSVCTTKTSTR
Chain of Plasmin (P00747 581-810 limits assumed): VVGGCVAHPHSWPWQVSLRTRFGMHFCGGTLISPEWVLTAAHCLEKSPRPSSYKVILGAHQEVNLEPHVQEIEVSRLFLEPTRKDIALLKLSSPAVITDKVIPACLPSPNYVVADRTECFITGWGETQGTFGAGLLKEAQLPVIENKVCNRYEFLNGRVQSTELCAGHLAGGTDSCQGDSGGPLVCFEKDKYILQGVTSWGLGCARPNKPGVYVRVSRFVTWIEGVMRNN
Chain of Plasmin (P00747 97-580 partner limits assumed): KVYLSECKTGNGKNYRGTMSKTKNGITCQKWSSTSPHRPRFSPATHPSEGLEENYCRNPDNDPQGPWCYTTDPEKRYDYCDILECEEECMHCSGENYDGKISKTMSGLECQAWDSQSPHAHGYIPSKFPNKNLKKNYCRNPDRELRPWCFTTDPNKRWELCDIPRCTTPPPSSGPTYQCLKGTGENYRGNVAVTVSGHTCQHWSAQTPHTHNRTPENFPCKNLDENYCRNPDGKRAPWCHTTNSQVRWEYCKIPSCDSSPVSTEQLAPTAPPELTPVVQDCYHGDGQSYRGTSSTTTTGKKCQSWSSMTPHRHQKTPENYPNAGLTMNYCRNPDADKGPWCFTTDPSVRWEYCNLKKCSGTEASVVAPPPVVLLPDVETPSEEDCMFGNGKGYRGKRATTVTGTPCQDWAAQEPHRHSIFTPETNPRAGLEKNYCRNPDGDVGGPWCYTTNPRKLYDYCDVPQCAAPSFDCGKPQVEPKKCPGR
Chain of KLK1 (P06870 25-262): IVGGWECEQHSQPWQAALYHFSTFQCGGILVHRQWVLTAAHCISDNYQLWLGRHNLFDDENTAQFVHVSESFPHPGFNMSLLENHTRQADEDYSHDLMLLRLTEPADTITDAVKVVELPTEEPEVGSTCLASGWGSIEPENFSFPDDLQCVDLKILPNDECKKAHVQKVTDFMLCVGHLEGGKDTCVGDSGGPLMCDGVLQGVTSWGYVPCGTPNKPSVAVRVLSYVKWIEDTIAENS
Chain of FXa (P00742 235-488 limits assumed): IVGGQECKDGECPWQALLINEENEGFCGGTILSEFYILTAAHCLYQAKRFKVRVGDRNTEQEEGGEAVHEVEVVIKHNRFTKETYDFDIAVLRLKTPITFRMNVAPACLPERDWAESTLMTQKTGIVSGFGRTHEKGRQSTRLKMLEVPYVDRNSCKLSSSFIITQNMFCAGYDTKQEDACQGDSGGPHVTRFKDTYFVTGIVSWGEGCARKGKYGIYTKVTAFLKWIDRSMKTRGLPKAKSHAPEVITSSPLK
Chain of FXa (P00742 41-179 partner limits assumed): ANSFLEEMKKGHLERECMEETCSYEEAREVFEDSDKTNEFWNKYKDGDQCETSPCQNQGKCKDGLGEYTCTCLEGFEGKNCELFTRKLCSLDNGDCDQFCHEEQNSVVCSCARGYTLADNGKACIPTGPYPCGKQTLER

For `Nc1nccc2c(NCC34COC(COc5ccn6ccnc6c5)(C3)C4)cccc12` [Example 2020, 5-N-[[1-(Imidazo[1,2-a]pyridin-7-yloxymethyl)-2-oxabicyclo[2.1.1]hexan-4-yl]methyl]isoquinoline-1,5-diamine], the IC50 at Thrombin was more than 40 µM; at KLK1 it was 3 to 10 µM; on Plasma Kallikrein it was more than 40 µM; on FXa it was more than 40 µM; on Human Factor XIIa, 0.01 to 0.1 µM. In data set [1], the half-life turned out to be 10.5 h. In data set [1], the bioavailability was 19.9%.
As to `Nc1nccc2c(NCC34COC(COc5ccc6nccn6c5)(C3)C4)cccc12` [Example 2022, 5-N-[[1-(Imidazo[1,2-a]pyridin-6-yloxymethyl)-2-oxabicyclo[2.1.1]hexan-4-yl]methyl]isoquinoline-1,5-diamine], the IC50 is more than 40 µM against Thrombin; 3 to 10 µM on KLK1; more than 40 µM at Plasma Kallikrein; more than 40 µM against FXa; 0.1 to 0.3 µM at Human Factor XIIa. The molecule further registered a half-life in data set [1] of 3.13 h. This molecule gave a bioavailability in data set [1] of 42.6%.
Turning to `Nc1nccc2c(NCC34CC(COc5ccc6nccn6c5)(CO3)C4)cccc12` [Example 6602, 5-N-[[4-(Imidazo[1,2-a]pyridin-6-yloxymethyl)-2-oxabicyclo[2.1.1]hexan-1-yl]methyl]isoquinoline-1,5-diamine], the IC50 was 10 to 40 µM against Thrombin; more than 40 µM at Trypsin; 3 to 10 µM against KLK1; more than 40 µM at Plasma Kallikrein; 10 to 40 µM on FXa; more than 40 µM against Plasmin. For the same molecule, the IC50 at Human Factor XIIa is 0.01 to 0.1 µM. In addition, in data set [1], the half-life is 5.7 h. Moreover, in data set [1], the bioavailability came to 33.5%.
For the molecule `Cc1cnc2ccc(OCC34COC(CNc5cccc6c(N)nccc56)(C3)C4)cn12` [Example 6624, 5-N-[[4-[(3-Methylimidazo[1,2-a]pyridin-6-yl)oxymethyl]-2-oxabicyclo[2.1.1]hexan-1-yl]methyl]isoquinoline-1,5-diamine], the 50% inhibitory concentration (IC50) at Thrombin was more than 40 µM; on Trypsin, 10 to 40 µM; at KLK1, 1 to 3 µM; on Plasma Kallikrein, 10 to 40 µM; on FXa, 1 to 3 µM; on Plasmin it was more than 40 µM. Further, the IC50 at Human Factor XIIa lay in the range of 0.01 to 0.1 µM. Moreover, in data set [1], the half-life amounted to 6.64 h. The bioavailability in data set [1] worked out at 14.8%.
On to `Nc1nccc2c(NCC34CC(COc5ccn6ccnc6c5)(CCO3)C4)cccc12` [Example 10901, N5-((5-((Imidazo[1,2-a]pyridin-7-yloxy)methyl)-2-oxabicyclo[3.1.1]heptan-1-yl)methyl)isoquinoline-1,5-diamine], for which the IC50 against Thrombin is 10 to 40 µM; at KLK1, 3 to 10 µM; on Plasma Kallikrein, more than 40 µM; on FXa, 10 to 40 µM; on Human Factor XIIa it was 0.01 to 0.1 µM. The half-life in data set [1] was 11.9 h. The molecule also registered a bioavailability in data set [1] of 9.3%.
Consider `Cn1ccc(OCC23CCOC(CNc4cccc5c(N)nccc45)(C2)C3)cc1=O` [Example 10906, 4-((1-(((1-aminoisoquinolin-5-yl)amino)methyl)-2-oxabicyclo[3.1.1]heptan-5-yl)methoxy)-1-methylpyridin-2(1H)-one], for which the 50% inhibitory concentration (IC50) is more than 40 µM on Thrombin; 10 to 40 µM at Trypsin; 10 to 40 µM against KLK1; more than 40 µM at Plasma Kallikrein; more than 40 µM at FXa; more than 40 µM against Plasmin. Besides, the IC50 at Human Factor XIIa was in the range of 0.1 to 0.3 µM. Also, the half-life in data set [1] was 2.55 h. The bioavailability in data set [1] came to 40.5%.
On to `Cn1ccc(OCC23CN(C(=O)OCc4ccccc4)C(CNc4cccc5c(N)nccc45)(C2)C3)cc1=O` [Example 12001, benzyl 1-(((1-aminoisoquinolin-5-yl)amino)methyl)-4-(((1-methyl-2-oxo-1,2-dihydropyridin-4-yl)oxy)methyl)-2-azabicyclo[2.1.1]hexane-2-carboxylate], for which the IC50 was more than 40 µM at Thrombin; 3 to 10 µM at KLK1; more than 40 µM on Plasma Kallikrein; more than 40 µM on FXa; 0.01 to 0.1 µM at Human Factor XIIa. In data set [1], this molecule returned a half-life of 1.14 h. In addition, the bioavailability in data set [1] came out at 8.2%.

(Values after US20240327412A1, “FACTOR XIIA INHIBITORS” (KALVISTA PHARMACEUTICALS LIMITED, priority 2021, published 2024).)
